Measured values taken from US6448006B1, “Methods and compositions for reducing bacterial tolerance to antibacterials disinfectants and organic solvents” (priority 1997, dated 2002).
Like-named read-outs stand apart in the source and are kept apart here.

What was measured:
[1] = tested on: E. coli strain WEC and its Pine-Sol-selected mutant; test: Antibiotic susceptibility by discs (diameter of clearing); type: cell-based
Method: (§1) Mutants resistant to Pine-Sol/pine oil were obtained from stationary phase LB broth cultures of E. coli strain “WEC” (wild type strain 15-5068 from Carolina Biological Supply Co., Burlington, N.C.) and AG100 (George and Levy, J. Bacteriol. 155:531-540, 1983), at 30° C. on nutrient agar (NP 3.5GP) or LB agar with 2-3 days incubation in a variety of ways: using a 6 mm disc method; plating cells on plates or gradient plates (Curiale and Levy, J. Bacteriol. 151:209-215, 1982), containing PINE-SOL™ (product of Clorox Co., Oakland, Calif.) or pine oil itself.
(§2) Antibiotic susceptibility was measured at 30° C. using antibiotic susceptibility discs (Carolina Biological), gradient plates with the drug in the top agar (Curiale and Levy, 1982) or agar dilution plates (concentration steps of 1.5 fold; inocula of 10^5 cells/5 μl spot). While there was a variability of resistance phenotypes, all Pine-Sol/pine oil-selected mutants were also multidrug resistant (Table 1A, B).

[2] = tested on: E. coli strains (AG100, Pine-Sol/pine oil mutants, Mar mutants); test: Susceptibility by gradient plates (MIC); type: cell-based; details: Escherichia coli
Method: as §1, §2

[3] = tested on: E. coli strains bearing mar, soxS or robA plasmids; type: cell-based
Source text: Organic solvent tolerance mediated by the marA, soxS, robA and acrAB loci of E. coli is described in White et al. (J. Bacteriol. 179:6122-6126, 1997).

[4] = values in parentheses in column heads; cited from earlier work
marA mRNA = test: Northern blot analysis of marA mRNA with inducer salicylate; type: cell-based, E. coli; details: Mar mutant AG102, mutants AP5 and NP3.5 GP
Source text: Over expression was also seen in mutant APS3 (data not shown). […] We concluded that AP5, NP3.5GP, and APS3, but not AP1, were probably Mar mutants.

[5] = read-out: Susceptibility by gradient plates (MIC), strain AG102, Mar mutant of AG100, selected on Tc (2 steps)
[6] = read-out: Susceptibility by gradient plates (MIC), strain AP1, mutant of AG100 selected by pine oil on disc
[7] = read-out: Susceptibility by gradient plates (MIC), strain AP5, mutant of AG100 selected as for AP1
[8] = read-out: Susceptibility by gradient plates (MIC), strain APS3, mutant of AG100 selected on Pine-Sol gradient (0-1.5%)
[9] = strain AG100, wildtype, read-out: Susceptibility by gradient plates (MIC)
[10] = strain HH180, deletion of 39 kb including mar locus, host MM294, read-out: Susceptibility by gradient plates (MIC)
[11] = strain HH188, HH180 containing pHHM183 (mar+), read-out: Susceptibility by gradient plates (MIC)
[12] = strain HH191, HH180 containing pHHM191 (marR2), read-out: Susceptibility by gradient plates (MIC)
[13] = strain HH193, HH180 containing pHHM193 (marR5), read-out: Susceptibility by gradient plates (MIC)
[14] = AG100-B (acrR mutant), no plasmid
[15] = AG100K (marCORAB::kan), no plasmid
[16] = AG102 (marR mutation), no plasmid
[17] = AG102-A (marRl, ΔacrAB), no plasmid

CC1(C)S[C@@H]2[C@H](NC(=O)[C@H](N)c3ccccc3)C(=O)N2[C@H]1C(=O)O [Ap, ampicillin]
< 0.6 µg/mL: MIC [2, 10]
3 µg/mL: MIC [2, 6]
7.7 µg/mL: MIC [2, 8]
< 1 µg/mL: MIC [2, 11]
< 1.2 µg/mL: MIC [2, 9]
7.2 µg/mL: MIC [2, 7]
5.4 µg/mL: MIC [2, 12]
85 µg/mL: MIC [2, 5]
12 mm: Susceptibility by discs; diameter of clearing ([1]; {})
5.9 µg/mL: MIC [2, 13]
22 mm: Susceptibility by discs; diameter of clearing ([1]; strain WEC, wild type, 30° C.)

O=C(N[C@H](CO)[C@H](O)c1ccc([N+](=O)[O-])cc1)C(Cl)Cl [Cm, chloramphenicol]
> 35 µg/mL: MIC [2, 5] | MIC [2, 8]
21 µg/mL: MIC [2, 7]
7.8 µg/mL: MIC [2, 6]
2.6 µg/mL: MIC [2, 9]
27 mm: Susceptibility by discs; diameter of clearing ([1]; strain WEC, wild type, 30° C.)
11 mm: Susceptibility by discs; diameter of clearing ([1]; {})

CCn1cc(C(=O)O)c(=O)c2ccc(C)nc21 [Nal, nalidixic acid]
9.1 µg/mL: MIC [2, 12]
10.9 µg/mL: MIC [2, 13]
3.7 µg/mL: MIC [2, 11]
14 µg/mL: MIC [2, 5]
7.5 µg/mL: MIC [2, 7]
< 1.8 µg/mL: MIC [2, 10]
1.7 µg/mL: MIC [2, 9]
8.6 µg/mL: MIC [2, 8]
9.7 µg/mL: MIC [2, 6]

CN(C)[C@@H]1C(O)=C(C(N)=O)C(=O)[C@@]2(O)C(O)=C3C(=O)c4c(O)cccc4[C@@](C)(O)[C@H]3C[C@@H]12 [Tc, tetracycline]
5.3 µg/mL: MIC [2, 8]
4.5 µg/mL: MIC [2, 7]
8.2 µg/mL: MIC [2, 12]
2.4 µg/mL: MIC [2, 6]
< 0.6 µg/mL: MIC [2, 10]
1.8 µg/mL: MIC [2, 9]
21 mm: Susceptibility by discs; diameter of clearing ([1]; strain WEC, wild type, 30° C.)
1.2 µg/mL: MIC [2, 11]
> 11.4 µg/mL: MIC [2, 13]
> 12.8 µg/mL: MIC [2, 5]
14 mm: Susceptibility by discs; diameter of clearing ([1]; {})

C1CCCCC1 [cyclohexane]
cyclohexane (3.4): log Pow [4]
−: Growth in presence of organic solvent ([3]; AG100 (wild-type), no plasmid) | Growth in presence of organic solvent ([3]; AG100, plasmid pMAK-TU1) | Growth in presence of organic solvent ([3]; AG100-A (ΔacrAB), no plasmid) | Growth in presence of organic solvent [3, 15] | Growth in presence of organic solvent ([3]; AG100K, plasmid pMAK-TU1) | Growth in presence of organic solvent [3, 17] | Growth in presence of organic solvent ([3]; AG102-A, plasmid pSMarAB) | Growth in presence of organic solvent ([3]; AG102-A, plasmid pSRob) | Growth in presence of organic solvent ([3]; AG102-A, plasmid pSXS) | Growth in presence of organic solvent ([3]; DJ901 (ΔsoxRS), no plasmid) | Growth in presence of organic solvent ([3]; DJ901, plasmid pMAK-TU1) | Growth in presence of organic solvent ([3]; GC4468 (wild-type), no plasmid) | Growth in presence of organic solvent ([3]; GC4468, plasmid pMAK-TU1) | Growth in presence of organic solvent ([3]; MCH164 (Δmar), no plasmid) | Growth in presence of organic solvent ([3]; MCH164, plasmid pMAK-TU1) | Growth in presence of organic solvent ([3]; MCH164, plasmid pMAK-TU2) | Growth in presence of organic solvent ([3]; MCH164, plasmid pSMarAB) | Growth in presence of organic solvent ([3]; MCH164, plasmid pSRob) | Growth in presence of organic solvent ([3]; MCH164, plasmid pSXS) | Growth in presence of organic solvent ([3]; RA4468 (robA::kan), no plasmid) | Growth in presence of organic solvent ([3]; RA4468, plasmid pMAK-TU1)
+ +: Growth in presence of organic solvent ([3]; AG100, plasmid pMAK-TU1 & TU2) | Growth in presence of organic solvent ([3]; AG100, plasmid pSRob) | Growth in presence of organic solvent ([3]; AG100, plasmid pSXS) | Growth in presence of organic solvent ([3]; AG100K, plasmid pMAK-TUI & TU2) | Growth in presence of organic solvent ([3]; AG100K, plasmid pSRob) | Growth in presence of organic solvent ([3]; AG100K, plasmid pSXS) | Growth in presence of organic solvent [3, 16] | Growth in presence of organic solvent ([3]; DJ901, plasmid pMAK-TU1 & TU2) | Growth in presence of organic solvent ([3]; DJ901, plasmid pSRob) | Growth in presence of organic solvent ([3]; DJ901, plasmid pSXS) | Growth in presence of organic solvent ([3]; GC4468, plasmid pMAK-TU1 & TU2) | Growth in presence of organic solvent ([3]; GC4468, plasmid pSRob) | Growth in presence of organic solvent ([3]; GC4468, plasmid pSXS) | Growth in presence of organic solvent ([3]; JHC1069 (cfxB1), no plasmid) | Growth in presence of organic solvent ([3]; JTG1078 (soxR105), no plasmid) | Growth in presence of organic solvent ([3]; MCH164, plasmid pMAK-TU1 & TU2) | Growth in presence of organic solvent ([3]; RA4468, plasmid pMAK-TU1 & TU2) | Growth in presence of organic solvent ([3]; RA4468, plasmid pSRob) | Growth in presence of organic solvent ([3]; RA4468, plasmid pSXS)
+ ((+) visible growth(≦100 colonies)): Growth in presence of organic solvent ([3]; AG100, plasmid pMAK-TU2) | Growth in presence of organic solvent ([3]; AG100, plasmid pSMarAB) | Growth in presence of organic solvent [3, 14] | Growth in presence of organic solvent ([3]; AG100K, plasmid pMAK-TU2) | Growth in presence of organic solvent ([3]; AG100K, plasmid pSMarAB) | Growth in presence of organic solvent ([3]; DJ901, plasmid pMAK-TU2) | Growth in presence of organic solvent ([3]; DJ901, plasmid pSMarAB) | Growth in presence of organic solvent ([3]; GC4468, plasmid pMAK-TU2) | Growth in presence of organic solvent ([3]; GC4468, plasmid pSMarAB) | Growth in presence of organic solvent ([3]; RA4468, plasmid pMAK-TU2) | Growth in presence of organic solvent ([3]; RA4468, plasmid pSMarAB)

CCCCCC [n-hexane]
+ ((+) visible growth(≦100 colonies)): Growth in presence of organic solvent [3, 15] | Growth in presence of organic solvent ([3]; AG100K, plasmid pMAK-TU1) | Growth in presence of organic solvent ([3]; MCH164 (Δmar), no plasmid) | Growth in presence of organic solvent ([3]; MCH164, plasmid pMAK-TU1) | Growth in presence of organic solvent ([3]; RA4468 (robA::kan), no plasmid) | Growth in presence of organic solvent ([3]; RA4468, plasmid pMAK-TU1)
−: Growth in presence of organic solvent ([3]; AG100-A (ΔacrAB), no plasmid) | Growth in presence of organic solvent [3, 17] | Growth in presence of organic solvent ([3]; AG102-A, plasmid pSMarAB) | Growth in presence of organic solvent ([3]; AG102-A, plasmid pSRob) | Growth in presence of organic solvent ([3]; AG102-A, plasmid pSXS)
+ +: Growth in presence of organic solvent ([3]; AG100 (wild-type), no plasmid) | Growth in presence of organic solvent ([3]; AG100, plasmid pMAK-TU1) | Growth in presence of organic solvent ([3]; AG100, plasmid pMAK-TU1 & TU2) | Growth in presence of organic solvent ([3]; AG100, plasmid pMAK-TU2) | Growth in presence of organic solvent ([3]; AG100, plasmid pSMarAB) | Growth in presence of organic solvent ([3]; AG100, plasmid pSRob) | Growth in presence of organic solvent ([3]; AG100, plasmid pSXS) | Growth in presence of organic solvent [3, 14] | Growth in presence of organic solvent ([3]; AG100K, plasmid pMAK-TU2) | Growth in presence of organic solvent ([3]; AG100K, plasmid pMAK-TUI & TU2) | Growth in presence of organic solvent ([3]; AG100K, plasmid pSMarAB) | Growth in presence of organic solvent ([3]; AG100K, plasmid pSRob) | Growth in presence of organic solvent ([3]; AG100K, plasmid pSXS) | Growth in presence of organic solvent [3, 16] | Growth in presence of organic solvent ([3]; DJ901 (ΔsoxRS), no plasmid) | Growth in presence of organic solvent ([3]; DJ901, plasmid pMAK-TU1) | Growth in presence of organic solvent ([3]; DJ901, plasmid pMAK-TU1 & TU2) | Growth in presence of organic solvent ([3]; DJ901, plasmid pMAK-TU2) | Growth in presence of organic solvent ([3]; DJ901, plasmid pSMarAB) | Growth in presence of organic solvent ([3]; DJ901, plasmid pSRob) | Growth in presence of organic solvent ([3]; DJ901, plasmid pSXS) | Growth in presence of organic solvent ([3]; GC4468 (wild-type), no plasmid) | Growth in presence of organic solvent ([3]; GC4468, plasmid pMAK-TU1) | Growth in presence of organic solvent ([3]; GC4468, plasmid pMAK-TU1 & TU2) | Growth in presence of organic solvent ([3]; GC4468, plasmid pMAK-TU2) | Growth in presence of organic solvent ([3]; GC4468, plasmid pSMarAB) | Growth in presence of organic solvent ([3]; GC4468, plasmid pSRob) | Growth in presence of organic solvent ([3]; GC4468, plasmid pSXS) | Growth in presence of organic solvent ([3]; JHC1069 (cfxB1), no plasmid) | Growth in presence of organic solvent ([3]; JTG1078 (soxR105), no plasmid) | Growth in presence of organic solvent ([3]; MCH164, plasmid pMAK-TU1 & TU2) | Growth in presence of organic solvent ([3]; MCH164, plasmid pMAK-TU2) | Growth in presence of organic solvent ([3]; MCH164, plasmid pSMarAB) | Growth in presence of organic solvent ([3]; MCH164, plasmid pSRob) | Growth in presence of organic solvent ([3]; MCH164, plasmid pSXS) | Growth in presence of organic solvent ([3]; RA4468, plasmid pMAK-TU1 & TU2) | Growth in presence of organic solvent ([3]; RA4468, plasmid pMAK-TU2) | Growth in presence of organic solvent ([3]; RA4468, plasmid pSMarAB) | Growth in presence of organic solvent ([3]; RA4468, plasmid pSRob) | Growth in presence of organic solvent ([3]; RA4468, plasmid pSXS)

CCCCC [n-pentane]
grew: Growth in presence of organic solvent ([3]; AG102, Mar mutant of AG100, data not shown)

O=C(O)c1ccccc1O [salicylate]
enhanced: Effect of inducer on over expression of marA mRNA (marA mRNA)
